From patent publication US20260062412A1, “NITROGEN-CONTAINING HETEROCYCLIC COMPOUND HAVING MYT1 INHIBITORY ACTIVITY” (CHUGAI SEIYAKU KABUSHIKI KAISHA, priority 2023, published 2026)

target: MYT1 protein (Homo sapiens (Human), UniProt Q99640); experiment: Test for binding to ATP binding site of MYT1 (Kinase Tracer 178 / Eu-Anti-GST antibody TR-FRET); conditions: ATP binding site of MYT1, 30 minutes at room temperature
Protocol: The binding capacity of each compound to the ATP binding site of MYT1 Kinase protein was evaluated. 5× Kinase Buffer A (manufactured by Thermo Fisher Scientific Inc., PV3189) was diluted to 5 times with Milli-Q water, thereby preparing 1× Kinase Buffer. Using 1× Kinase Buffer, MYT1 protein (manufactured by Carna Biosciences, Inc.) was diluted to a concentration of 0.005 μM and Eu-Anti-GST Antibody was diluted to a concentration of 1 μM. […] To a 96 well-plate, 2.5 μL of a compound diluted with DMSO was added. […] The mixture was well mixed and then allowed to stand at room temperature for 30 minutes. Thereafter, fluorescence wavelengths of 665 nm and 615 nm generated by irradiation with excitation light of 340 nm were detected using Envision (manufactured by PerkinElmer). The proportion of Tracer bound to MYT1 protein was calculated for every condition by dividing the intensity at the fluorescence wavelength of 665 nm by the intensity at the fluorescence wavelength of 615 nm.

Sequence of MYT1 protein (Q99640 whole entry): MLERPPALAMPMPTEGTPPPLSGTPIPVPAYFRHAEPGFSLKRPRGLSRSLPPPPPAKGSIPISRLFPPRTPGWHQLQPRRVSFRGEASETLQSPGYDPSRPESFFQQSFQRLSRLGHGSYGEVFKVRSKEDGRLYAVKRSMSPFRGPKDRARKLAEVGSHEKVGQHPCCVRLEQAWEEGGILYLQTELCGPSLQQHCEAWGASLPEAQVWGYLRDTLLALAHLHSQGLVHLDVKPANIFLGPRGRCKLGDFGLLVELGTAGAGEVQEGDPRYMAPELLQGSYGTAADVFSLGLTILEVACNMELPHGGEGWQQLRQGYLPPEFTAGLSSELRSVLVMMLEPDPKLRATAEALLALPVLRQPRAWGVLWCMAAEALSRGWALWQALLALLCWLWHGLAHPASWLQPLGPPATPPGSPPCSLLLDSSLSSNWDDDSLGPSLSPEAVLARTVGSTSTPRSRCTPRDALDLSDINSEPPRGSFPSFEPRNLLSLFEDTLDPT

Row | Structure (SMILES) | IC50
1 | Nc1c(-c2c(F)ccc3[nH]ncc23)c2cc(C3CC3)c3ncccc3c2[nH]c1=O (atropisomer, axis not shown) [Compound C157, (R)-3-amino-6-cyclopropyl-4-(5-fluoro-1H-indazol-4-yl)-1H-1,7-phenanthrolin-2-one] | 310 nM
2 | CC(C)Oc1cc2c(-c3ccc(Cl)c4[nH]ncc34)c(N)c(=O)[nH]c2cc1F [Compound A1, 3-Amino-4-(7-chloro-1H-indazol-4-yl)-7-fluoro-6-propan-2-yloxy-1H-quinolin-2-one] | 29 nM
3 | CC(C)Oc1cc2c(-c3ccc(Cl)c4[nH]ncc34)c(N)c(=O)[nH]c2cc1Cl [Compound A8, 3-Amino-7-chloro-4-(7-chloro-1H-indazol-4-yl)-6-propan-2-yloxy-1H-quinolin-2-one] | 23 nM
4 | Nc1c(-c2ccc(Cl)c3[nH]ncc23)c2cc(Cl)cc(Br)c2[nH]c1=O [Compound A17, 3-Amino-8-bromo-6-chloro-4-(7-chloro-1H-indazol-4-yl)-1H-quinolin-2-one] | 27 nM
5 | C#Cc1cc(Cl)cc2c(-c3ccc(Cl)c4[nH]ncc34)c(N)c(=O)[nH]c12 [Compound A18, 3-Amino-6-chloro-4-(7-chloro-1H-indazol-4-yl)-8-ethynyl-1H-quinolin-2-one] | 87 nM
6 | CC(C)c1cc(Cl)cc2c(-c3ccc(Cl)c4[nH]ncc34)c(N)c(=O)[nH]c12 [Compound A19, 3-Amino-6-chloro-4-(7-chloro-1H-indazol-4-yl)-8-propan-2-yl-1H-quinolin-2-one] | 600 nM
7 | N#Cc1cc(Cl)cc2c(-c3ccc(Cl)c4[nH]ncc34)c(N)c(=O)[nH]c12 [Compound A21, 3-Amino-6-chloro-4-(7-chloro-1H-indazol-4-yl)-2-oxo-1H-quinoline-8-carbonitrile] | 20 nM
8 | CCCc1cc(Cl)cc2c(-c3ccc(Cl)c4[nH]ncc34)c(N)c(=O)[nH]c12 [Compound A22, 3-Amino-6-chloro-4-(7-chloro-1H-indazol-4-yl)-8-propyl-1H-quinolin-2-one] | 270 nM
9 | C=Cc1cc(Cl)cc2c(-c3ccc(Cl)c4[nH]ncc34)c(N)c(=O)[nH]c12 [Compound A23, 3-Amino-6-chloro-4-(7-chloro-1H-indazol-4-yl)-8-ethenyl-1H-quinolin-2-one] | 34 nM
10 | Nc1c(-c2ccc(Cl)c3[nH]ncc23)c2cc(Cl)cc(C3CC3)c2[nH]c1=O [Compound A24, 3-Amino-6-chloro-4-(7-chloro-1H-indazol-4-yl)-8-cyclopropyl-1H-quinolin-2-one] | 110 nM
11 | CCc1cc(Cl)cc2c(-c3ccc(Cl)c4[nH]ncc34)c(N)c(=O)[nH]c12 [Compound A25, 3-Amino-6-chloro-4-(7-chloro-1H-indazol-4-yl)-8-ethyl-1H-quinolin-2-one] | 45 nM
12 | CCc1cc2[nH]c(=O)c(N)c(-c3ccc(Cl)c4[nH]ncc34)c2cc1Cl [Compound A28, 3-Amino-6-chloro-4-(7-chloro-1H-indazol-4-yl)-7-ethyl-1H-quinolin-2-one] | 47 nM

The next compounds have a lower IC50 than those just listed; values first:

Row | IC50 | Structure (SMILES)
13 | 18 nM | Nc1c(-c2ccc(Cl)c3[nH]ncc23)c2cc(OCC3CC3)c(Cl)cc2[nH]c1=O [Compound A13, 3-Amino-7-chloro-4-(7-chloro-1H-indazol-4-yl)-6-(cyclopropylmethoxy)-1H-quinolin-2-one]
14 | 13 nM | Cc1nc2[nH]c(=O)c(N)c(-c3ccc(Cl)c4[nH]ncc34)c2cc1O[C@H]1C[C@H](F)C1 [Compound A15, 3-Amino-4-(7-chloro-1H-indazol-4-yl)-6-((1r,3r)-3-fluorocyclobutyl)oxy-7-methyl-1H-1,8-naphthyridin-2-one]
15 | 12 nM | Nc1c(-c2ccc(Cl)c3[nH]ncc23)c2cc(Cl)cc(Cl)c2[nH]c1=O [Compound A20, 3-Amino-6,8-dichloro-4-(7-chloro-1H-indazol-4-yl)-1H-quinolin-2-one]
16 | 11 nM | Cc1cc(Cl)cc2c(-c3ccc(Cl)c4[nH]ncc34)c(N)c(=O)[nH]c12 [Compound A26, 3-Amino-6-chloro-4-(7-chloro-1H-indazol-4-yl)-8-methyl-1H-quinolin-2-one]
17 | 9.3 nM | Nc1c(-c2ccc(Cl)c3[nH]ncc23)c2cc(OCCC(F)F)c(F)cc2[nH]c1=O [Compound A2, 3-Amino-4-(7-chloro-1H-indazol-4-yl)-6-(3,3-difluoropropoxy)-7-fluoro-1H-quinolin-2-one]
18 | 8.5 nM | Nc1c(-c2ccc(Cl)c3[nH]ncc23)c2cc(OCC3CC3)c(F)cc2[nH]c1=O [Compound A3, 3-Amino-4-(7-chloro-1H-indazol-4-yl)-6-(cyclopropylmethoxy)-7-fluoro-1H-quinolin-2-one]
19 | 5 nM | Cc1nc2[nH]c(=O)c(N)c(-c3ccc(Cl)c4[nH]ncc34)c2cc1O[C@H]1C[C@H](C#N)C1 [Compound A16, (1r,3r)-3-[[6-Amino-5-(7-chloro-1H-indazol-4-yl)-2-methyl-7-oxo-8H-1,8-naphthyridine-3-yl]oxy]cyclobutane-1-carbonitrile]
20 | 4.4 nM | Nc1c(-c2ccc(Cl)c3[nH]ncc23)c2cc(OC3CCC3)c(F)cc2[nH]c1=O [Compound A7, 3-Amino-4-(7-chloro-1H-indazol-4-yl)-6-cyclobutyloxy-7-fluoro-1H-quinolin-2-one]
21 | 4.3 nM | Nc1c(-c2ccc(Cl)c3[nH]ncc23)c2cc(OC3CCC3)c(Cl)cc2[nH]c1=O [Compound A10, 3-Amino-7-chloro-4-(7-chloro-1H-indazol-4-yl)-6-cyclobutyloxy-1H-quinolin-2-one]
22 | 3.9 nM | Nc1c(-c2ccc(Cl)c3[nH]ncc23)c2cc(OCCC(F)F)c(Cl)cc2[nH]c1=O [Compound A9, 3-Amino-7-chloro-4-(7-chloro-1H-indazol-4-yl)-6-(3,3-difluoropropoxy)-1H-quinolin-2-one]
23 | 3.9 nM | Nc1c(-c2ccc(Cl)c3[nH]ncc23)c2cc(O[C@H]3C[C@H](F)C3)c(Cl)cc2[nH]c1=O [Compound A11, 3-Amino-7-chloro-4-(7-chloro-1H-indazol-4-yl)-6-((1r,3r)-3-fluorocyclobutyl)oxy-1H-quinolin-2-one]
24 | 3.8 nM | Nc1c(-c2ccc(Cl)c3[nH]ncc23)c2cc(O[C@H]3C[C@H](F)C3)c(F)cc2[nH]c1=O [Compound A4, 3-Amino-4-(7-chloro-1H-indazol-4-yl)-7-fluoro-6-((1r,3r)-3-fluorocyclobutyl)oxy-1H-quinolin-2-one]
25 | 3 nM | Nc1c(-c2ccc(Cl)c3[nH]ncc23)c2cc(OCCCF)c(F)cc2[nH]c1=O [Compound A6, 3-Amino-4-(7-chloro-1H-indazol-4-yl)-7-fluoro-6-(3-fluoropropoxy)-1H-quinolin-2-one]
26 | 2.1 nM | Nc1c(-c2ccc(Cl)c3[nH]ncc23)c2cc(OCCCF)c(Cl)cc2[nH]c1=O [Compound A14, 3-Amino-7-chloro-4-(7-chloro-1H-indazol-4-yl)-6-(3-fluoropropoxy)-1H-quinolin-2-one]
27 | 1.9 nM | Nc1c(-c2c(F)ccc3[nH]ncc23)c2cc(C3CC3)c3ncccc3c2[nH]c1=O (atropisomer, axis not shown) [Compound C158, (S)-3-amino-6-cyclopropyl-4-(5-fluoro-1H-indazol-4-yl)-1H-1,7-phenanthrolin-2-one]
28 | 1.8 nM | N#C[C@H]1C[C@H](Oc2cc3c(-c4ccc(Cl)c5[nH]ncc45)c(N)c(=O)[nH]c3cc2F)C1 [Compound A5, (1r,3r)-3-[[3-Amino-4-(7-chloro-1H-indazol-4-yl)-7-fluoro-2-oxo-1H-quinolin-6-yl]oxy]cyclobutane-1-carbonitrile]
